Results from ChEMBL document CHEMBL4483862, “Open-source discovery of chemical leads for next-generation chemoprotective antimalarials” (2018).

System: Plasmodium berghei
Assay: Luciferase/luciferin-expressing antifolate-resistant parasites were used to infect a culture of HepG2 cells that were pre-incubated with compounds. Infected hepatocytes emit light due to the luciferase reaction. Assay results are presented as the percent inhibition of light emission compared to control. […]
Format: functional
Settings: sporozoite; for IC90: read-out: LUCIFERASE INFECTION ASSAY - IC90

| Compound | IC90 | also measured |
| --- | --- | --- |
| CC(C)Cc1nc2oc3c(NCC4CCCO4)ncnc3c2c2c1CCC2 (stereo not given) | 4.52 µM | IC50 (PBLUC_HILL_SLOPE 12.2, PBLUC_R_SQUARED 0.0912, read-out: LUCIFERASE INFECTION ASSAY - IC50): 3.77 µM |
| Cc1ccc(/C=C/c2ccc3ccccc3[n+]2C)cc1 | > 8.52 µM | IC50 (PBLUC_HILL_SLOPE 12.2, PBLUC_R_SQUARED 0.0729, read-out: LUCIFERASE INFECTION ASSAY - IC50): 8.36 µM |
| CN(C)CCNC(=O)c1ccc(-c2cc(-c3cc(F)c(F)c(F)c3)cnc2N)cc1 | > 7.96 µM | IC50 (PBLUC_HILL_SLOPE 12.1, PBLUC_R_SQUARED 0.329, read-out: LUCIFERASE INFECTION ASSAY - IC50): 7.43 µM |
| CC(C)(C)NCC(O)CON=C1c2ccccc2-c2ccccc21 (stereo not given) | > 10 µM | IC50 (PBLUC_HILL_SLOPE 12, PBLUC_R_SQUARED 0.408, read-out: LUCIFERASE INFECTION ASSAY - IC50): 9.17 µM |
| Cc1nc(N2CCN(C(=O)C(C)C)CC2)c2c3c(sc2n1)CC(C)CC3 (stereo not given) | > 10 µM | IC50 (PBLUC_HILL_SLOPE 12.1, PBLUC_R_SQUARED 0.479, read-out: LUCIFERASE INFECTION ASSAY - IC50): 9.05 µM |
| CCc1ccccc1NC(=O)C(C)SCc1ccccc1 (stereo not given) | > 11 µM | IC50 (PBLUC_HILL_SLOPE 11.9, PBLUC_R_SQUARED 0.654, read-out: LUCIFERASE INFECTION ASSAY - IC50): 9.84 µM |
| CC(C)S(=O)(=O)c1cscc1NC(=O)c1ccc(-c2cc(C(F)(F)F)nn2C)s1 | > 7.12 µM | IC50 (PBLUC_HILL_SLOPE 12.2, PBLUC_R_SQUARED 0.329, read-out: LUCIFERASE INFECTION ASSAY - IC50): 6.55 µM |
| CN(C)CCNC(=O)c1ccc(-c2cn3c(-c4ccc5c(c4)OCO5)cnc3cn2)cc1 | > 7.68 µM | IC50 (PBLUC_HILL_SLOPE 12, PBLUC_R_SQUARED 0.209, read-out: LUCIFERASE INFECTION ASSAY - IC50): > 7.68 µM |
| O=C(Nc1nc2ccccc2[nH]1)C1CCN(c2ncc(C(F)(F)F)cc2Cl)CC1 | 3.95 µM | IC50 (PBLUC_HILL_SLOPE 12.1, PBLUC_R_SQUARED 0.351, read-out: LUCIFERASE INFECTION ASSAY - IC50): 3.29 µM |
| CSc1ncc(C(=O)N2CCN(c3ccnc4cc(Cl)ccc34)CC2)n1-c1ccc(F)cc1 | 9.72 µM | IC50 (PBLUC_HILL_SLOPE 12.3, PBLUC_R_SQUARED 0.334, read-out: LUCIFERASE INFECTION ASSAY - IC50): 8.13 µM |
| Cc1cccc(NC(=O)CN2CCN(C(=O)c3csc(-c4ccc(C(C)C)cc4)n3)CC2)c1C | 3.81 µM | IC50 (PBLUC_HILL_SLOPE 12.3, PBLUC_R_SQUARED 0.609, read-out: LUCIFERASE INFECTION ASSAY - IC50): 3.19 µM |
| CNc1snc(C)c1C(=O)N(C)Cc1ccccc1OC(F)(F)F | 0.463 µM | IC50 (PBLUC_HILL_SLOPE 12.1, PBLUC_R_SQUARED 0.631, read-out: LUCIFERASE INFECTION ASSAY - IC50): 0.386 µM |
| c1ccc(CNc2nn3c(-c4ccccc4)cnc3s2)cc1 | 4.14 µM | IC50 (PBLUC_HILL_SLOPE 12.3, PBLUC_R_SQUARED 0.487, read-out: LUCIFERASE INFECTION ASSAY - IC50): 3.47 µM |
| O=C(Nc1ccc(Cl)cc1)Nc1cc(-c2cc(-c3ccccc3)c(C(F)(F)F)s2)n[nH]1 | > 7.13 µM | IC50 (PBLUC_HILL_SLOPE 12.1, PBLUC_R_SQUARED 0.235, read-out: LUCIFERASE INFECTION ASSAY - IC50): 6.86 µM |
| O=C(COC(=O)C1(c2ccccc2F)CCCC1)NC1CCCCCCC1 | > 10 µM | IC50 (PBLUC_HILL_SLOPE 12.1, PBLUC_R_SQUARED 0.29, read-out: LUCIFERASE INFECTION ASSAY - IC50): > 10 µM |
| CN(C)C(CNc1ncnc2sc(-c3ccccc3)cc12)c1ccco1 (stereo not given) | > 10 µM | IC50 (PBLUC_HILL_SLOPE 12.3, PBLUC_R_SQUARED 0.199, read-out: LUCIFERASE INFECTION ASSAY - IC50): 9.76 µM |
| N#Cc1nncn1Cc1csc(-c2cccs2)n1 | 9.56 µM | IC50 (PBLUC_HILL_SLOPE 12.1, PBLUC_R_SQUARED 0.315, read-out: LUCIFERASE INFECTION ASSAY - IC50): 7.97 µM |
| CCOC(=O)c1cc(OC)c2cccc(CN3CCCCCC3(C)C(=O)NCC(C)C)c2c1 (stereo not given) | > 7.26 µM | IC50 (PBLUC_HILL_SLOPE 12.1, PBLUC_R_SQUARED 0.495, read-out: LUCIFERASE INFECTION ASSAY - IC50): 6.85 µM |
| O=C(/C(=N/Nc1ccc(OC(F)(F)F)cc1)C(=O)C(F)(F)F)c1cccs1 | > 8.04 µM | IC50 (PBLUC_HILL_SLOPE 12.2, PBLUC_R_SQUARED 0.21, read-out: LUCIFERASE INFECTION ASSAY - IC50): 7.58 µM |
| CC(C)(C)c1ccccc1NC(=O)Nc1nc(C(N)CCc2ccccc2)cs1 (stereo not given) | 8 µM | IC50 (PBLUC_HILL_SLOPE 12.3, PBLUC_R_SQUARED 0.125, read-out: LUCIFERASE INFECTION ASSAY - IC50): 6.69 µM |

| Compound | IC90 | also measured |
| --- | --- | --- |
| Cc1ccccc1-n1c(SCC(=O)NC2CCCCC2)nc(O)cc1=O | 3.36 µM | IC50 (PBLUC_HILL_SLOPE 12.2, PBLUC_R_SQUARED 0.38, read-out: LUCIFERASE INFECTION ASSAY - IC50): 2.81 µM |
| Oc1ccc(Br)cc1/C=N/c1cc(C(F)(F)F)ccc1NCCc1ccccc1 | > 7.12 µM | IC50 (PBLUC_HILL_SLOPE 12.2, PBLUC_R_SQUARED 0.511, read-out: LUCIFERASE INFECTION ASSAY - IC50): > 7.12 µM |
| COc1ccc(-c2cnc3cnc(-c4ccsc4)cn23)cn1 | 9.71 µM | IC50 (PBLUC_HILL_SLOPE 12.3, PBLUC_R_SQUARED 0.383, read-out: LUCIFERASE INFECTION ASSAY - IC50): 8.12 µM |
| c1ccc(-c2cc3c(SCc4cscn4)ncnc3s2)cc1 | 3.71 µM | IC50 (PBLUC_HILL_SLOPE 12.2, PBLUC_R_SQUARED 0.61, read-out: LUCIFERASE INFECTION ASSAY - IC50): 3.1 µM |
| CC(C)n1ncc2cc(NC(=O)C3=Cc4ccccc4OC3)cnc21 | > 10 µM | IC50 (PBLUC_HILL_SLOPE 12, PBLUC_R_SQUARED 0.534, read-out: LUCIFERASE INFECTION ASSAY - IC50): 9.28 µM |
| O=C(NC(=O)c1ccc(F)c(Cl)c1)Nc1nnc(C(F)(F)F)s1 | > 8.95 µM | IC50 (PBLUC_HILL_SLOPE 12, PBLUC_R_SQUARED 0.227, read-out: LUCIFERASE INFECTION ASSAY - IC50): 8.64 µM |
| CCCCNC(=O)c1c(NC(=O)c2ccc(C(=O)OC)cc2)nc2ccccn12 | > 8.37 µM | IC50 (PBLUC_HILL_SLOPE 12.3, PBLUC_R_SQUARED 0.245, read-out: LUCIFERASE INFECTION ASSAY - IC50): 7.76 µM |
| NC(CCc1ccccc1)c1csc(NC(=O)Nc2ccccc2-c2ccccc2)n1 (stereo not given) | 7.05 µM | IC50 (PBLUC_HILL_SLOPE 12.2, PBLUC_R_SQUARED 0.388, read-out: LUCIFERASE INFECTION ASSAY - IC50): 5.88 µM |
| CN(C)CCCNc1nc(-c2cccs2)nc2sc3c(c12)CCCC3 | 4.04 µM | IC50 (PBLUC_HILL_SLOPE 12.2, PBLUC_R_SQUARED 0.29, read-out: LUCIFERASE INFECTION ASSAY - IC50): 3.37 µM |
| CCOC(=O)c1oc2ccccc2c1COC(=O)c1ccc(C)c(NC(=O)c2ccco2)c1 | 7.27 µM | IC50 (PBLUC_HILL_SLOPE 12.1, 4.42, PBLUC_R_SQUARED 0.718, 0.471, read-out: LUCIFERASE INFECTION ASSAY - IC50): 6.8 µM |
| COc1ccc(Nc2nc(N)nc(CSc3nc4ccccc4o3)n2)cc1 | 3.53 µM | IC50 (PBLUC_HILL_SLOPE 12.3, PBLUC_R_SQUARED 0.778, read-out: LUCIFERASE INFECTION ASSAY - IC50): 2.95 µM |
| CC(=O)Nc1ccc(-c2cnc3ccc(Cc4ccc(F)cc4)nn23)cc1 | 1.41 µM | IC50 (PBLUC_HILL_SLOPE 11.9, PBLUC_R_SQUARED 0.515, read-out: LUCIFERASE INFECTION ASSAY - IC50): 1.17 µM |
| Cc1nn(-c2ccccc2)c2nc(-c3cccs3)cc(C(=O)Nc3cc(Cl)ccc3N3CCN(C)CC3)c12 | 9.44 µM | IC50 (PBLUC_HILL_SLOPE 12, PBLUC_R_SQUARED 0.52, read-out: LUCIFERASE INFECTION ASSAY - IC50): 7.85 µM |
| CCN1CCN(c2ccc(Cl)cc2NC(=O)c2sc(-c3ccccc3)nc2C)CC1 | 4.23 µM | IC50 (PBLUC_HILL_SLOPE 12.2, PBLUC_R_SQUARED 0.286, read-out: LUCIFERASE INFECTION ASSAY - IC50): 3.53 µM |
| Cc1ccc(NC(=O)c2cnn(-c3cccc(Cl)c3)c2C(C)C)nc1 | 4.3 µM | IC50 (PBLUC_HILL_SLOPE 12, PBLUC_R_SQUARED 0.586, read-out: LUCIFERASE INFECTION ASSAY - IC50): 3.58 µM |
| CC(NC(=O)Nc1ccc(C#N)cc1)c1ccc2ccccc2c1 (stereo not given) | > 10 µM | IC50 (PBLUC_HILL_SLOPE 12.1, PBLUC_R_SQUARED 0.463, read-out: LUCIFERASE INFECTION ASSAY - IC50): 9.4 µM |
| O=C(Nc1nccs1)C1CCCNC1 (stereo not given) | > 10 µM | IC50 (PBLUC_HILL_SLOPE 12.1, PBLUC_R_SQUARED 0.548, read-out: LUCIFERASE INFECTION ASSAY - IC50): 8.7 µM |
| NC(=O)c1ccsc1NC(=O)c1cc(-c2ccccc2)nn1-c1ccccc1 | 3.68 µM | IC50 (PBLUC_HILL_SLOPE 12.3, PBLUC_R_SQUARED 0.697, read-out: LUCIFERASE INFECTION ASSAY - IC50): 3.08 µM |
| O=C(NC1CC1)c1ccc(-c2cnc3cnc(-c4cnn(Cc5ccccc5)c4)cn23)cc1 | > 7.59 µM | IC50 (PBLUC_HILL_SLOPE 12.1, PBLUC_R_SQUARED 0.417, read-out: LUCIFERASE INFECTION ASSAY - IC50): 6.99 µM |
| Cc1[nH]c2ccccc2c1CC(=O)N1CCc2c(c(C(=O)NCc3cccnc3)nn2CC(C)C)C1 | 6.57 µM | IC50 (PBLUC_HILL_SLOPE 12.1, PBLUC_R_SQUARED 0.505, read-out: LUCIFERASE INFECTION ASSAY - IC50): 5.48 µM |
